Some test systems named below: 786-0 renal; DLD-1 colon; DMS 114 small cell lung; DMS 273 small cell lung; DU-145 prostate; KM20L2 colon; LOX IMVI melanoma; LXFL 529 NSCLC; M19-MEL melanoma; MDA-N; NCI/ADR-RES ovarian; OVCAR-8 ovarian; SK-MEL-2 melanoma; SNB-78 CNS; SR leukemia; UO-31 renal.
Test in all cases: NCI-60 cell line screen, 48 h

The source of these data is PubChem BioAssay (NCI).

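Test compounds were applied to cells in 96-well plates for 48 hours at 5 doses. TGI is the concentration that stops growth completely.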 Some results are limits rather than exact numbers.

On to `O=c1[nH]cc(N(CCCl)CCCl)c(=O)[nH]1`, for which the TGI was found to be 64.8 µM in the experiment with 786-0 renal; 366 µM in the experiment on DLD-1 colon; 103 µM in the experiment on DMS 114 small cell lung; 74.4 µM in the experiment on DMS 273 small cell lung; 303 µM in the experiment on DU-145 prostate; 196 µM with KM20L2 colon. Moreover, the TGI was 165 µM in the experiment with LOX IMVI melanoma; 187 µM with LXFL 529 NSCLC; 175 µM in the experiment on M19-MEL melanoma; 153 µM with MDA-N; 160 µM with NCI/ADR-RES ovarian; 201 µM with OVCAR-8 ovarian. Also, the TGI in the experiment on SK-MEL-2 melanoma worked out at 204 µM; in the experiment on SNB-78 CNS, 369 µM; in the experiment on SR leukemia, 55.1 µM; with UO-31 renal, 201 µM.
For `C=C(CN(C)C)C(=O)c1cc(C)ccc1C`, the TGI in the experiment with 786-0 renal turned out to be 11.4 µM; in the experiment with DLD-1 colon it was 7.47 µM; in the experiment on DMS 114 small cell lung, 21.4 µM; in the experiment on DMS 273 small cell lung, 39.3 µM; in the experiment on DU-145 prostate, 22 µM; in the experiment on KM20L2 colon, 61.2 µM. For the same compound, the TGI in the experiment on LOX IMVI melanoma was 13.8 µM; in the experiment on LXFL 529 NSCLC, 5.42 µM; in the experiment with M19-MEL melanoma, 19.6 µM; with MDA-N, 21.4 µM; in the experiment on NCI/ADR-RES ovarian it was over 85.1 µM; in the experiment on OVCAR-8 ovarian it was 66.5 µM. Besides, the TGI is 37.8 µM in the experiment on SK-MEL-2 melanoma, 81.5 µM in the experiment on SNB-78 CNS, 6.63 µM with SR leukemia and 19.1 µM in the experiment on UO-31 renal.
